# Measured values as given in patent US20240408167A1, “COMPOSITION FOR TREATING OCULAR DISEASES CONTAINING PEPTIDE” (Encuragen Inc., priority 2023, published 2024).
# Assays:
# [1] = Viscosity of eye drops by rotational rheometer; type: physicochemical; conditions: shear rate 100 (1/s)
# Excerpt: Based on the above information, sodium hyaluronate was set as the viscosity reagent.
# [2] = test system: apoptotic cells in cornea and conjunctiva; test: Apoptotic cells by TUNEL, rabbit model; type: in vivo; conditions: for cell death rate in the conjunctiva: Day 10; for percentage of apoptotic cells per unit area, cornea: after 10 days
# Procedure: (§1) The eyes and appendages from each group were excised, fixed in the modified Davidson's solution, and embedded in paraffin, and the tissue sections were TUNEL-stained. In each section, the degree of apoptosis in the cornea and conjunctiva was measured using ZEN (Zeiss, Oberkochen, Germany) and Image J v1.51j8 (NIH, Bethesda, MD, USA) software programs.
# The percentage of the apoptotic cells per unit area was evaluated after 10 days in the rabbit model. In the cornea, apoptotic cells were detected at a percentage of 35±6% in the normal control group and 74±2% in the vehicle group. In the 0.1%, 0.2%, and 0.4% (PEG)-BHD1028 treatment groups, the percentage was 40±12%, 39±3%, and 35±4%, respectively. […] In addition, the cell death rate in the conjunctiva was 7±5% in the normal control group and 56±4% in the vehicle group. The percentage in the 0.1%, 0.2% and 0.4% (PEG)-BHD1028 treatment groups was 35±4%, 26±3% and 19±4% on Day 10.
# [3] = test system: apoptotic cells in cornea and conjunctiva; test: Apoptotic cells by TUNEL assay, EDE mouse model; type: in vivo; conditions: 0.001%, 0.01%, 0.1%
# Procedure: as §1
# As DED progresses, the epithelium of the anterior segment of the eye undergoes pathological deformations, including functional damages and structural changes such as abnormal tear sebum secretion and pathogenic cell death. Apoptotic cells that were present in an equal area of the cornea and conjunctiva of one eye per group were quantified by the TUNEL assay.
substance,measurement,setting,value
"NH2-Tyr-Tyr-Phe-Ala-Tyr-His-Pro-Asn-Ile-Pro-Gly-Leu-Tyr-Tyr-Phe-COOH (H-YYFAYHPNIPGLYYF-OH; also: PEGylated, site not given here (mPEG), acetate salt) [(PEG)-BHD1028]","viscosity, Test result",[1]; concentration 0.5%,0.009 Pa · S
same,"viscosity, Test result",[1]; concentration 1.5%,0.010 Pa · S
same,"viscosity, Test result",[1]; concentration 4.5%,0.014 Pa · S
same,cell death rate in the conjunctiva,[2]; 0.1%,35±4%
same,"percentage of apoptotic cells per unit area, cornea",[2]; 0.1%,40±12%
same,cell death rate in the conjunctiva,[2]; 0.2%,26±3%
same,"percentage of apoptotic cells per unit area, cornea",[2]; 0.2%,39±3%
same,cell death rate in the conjunctiva,[2]; 0.4%,19±4%
same,"percentage of apoptotic cells per unit area, cornea",[2]; 0.4%,35±4%
same,antiapoptotic effect (TUNEL) in the cornea and conjunctiva,[3],dose-dependent antiapoptotic effect
